Patent US10988477B2 (Merck Patent GmbH, priority 2018, dated 2021)
Like-named read-outs stand apart in the source and are kept apart here.

What was measured:
[1] = biological target: GCN2 kinase (Homo sapiens, UniProt Q9P2K8); assay: GCN2 enzyme inhibition assay (Transcreener ADP2 fluorescence polarization); type: biochemical; conditions: 280 μM ATP
In short: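 ADP formation read by Transcreener FP after a 1 h, 25 °C kinase reaction containing 280 μM ATP, 200 μM (RS)7 substrate and 4 nM GCN2, pH 7.5 Tris buffer. Compounds (0–8 μM final) were added 10 min before ATP. Percent inhibition gave IC50 and apparent Ki via tight-binding fit.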

[2] = biological target: intracellular GCN2 (phosphorylation of the GCN2 substrate eIF2α) (Homo sapiens, UniProt Q9P2K8); assay: GCN2 cellular inhibition assay (AlphaScreen SureFire P-eIF2α Ser51, borrelidin-treated U2OS cells); type: cell-based
Chain of intracellular GCN2 (phosphorylation of the GCN2 substrate eIF2α) (Q9P2K8 whole entry): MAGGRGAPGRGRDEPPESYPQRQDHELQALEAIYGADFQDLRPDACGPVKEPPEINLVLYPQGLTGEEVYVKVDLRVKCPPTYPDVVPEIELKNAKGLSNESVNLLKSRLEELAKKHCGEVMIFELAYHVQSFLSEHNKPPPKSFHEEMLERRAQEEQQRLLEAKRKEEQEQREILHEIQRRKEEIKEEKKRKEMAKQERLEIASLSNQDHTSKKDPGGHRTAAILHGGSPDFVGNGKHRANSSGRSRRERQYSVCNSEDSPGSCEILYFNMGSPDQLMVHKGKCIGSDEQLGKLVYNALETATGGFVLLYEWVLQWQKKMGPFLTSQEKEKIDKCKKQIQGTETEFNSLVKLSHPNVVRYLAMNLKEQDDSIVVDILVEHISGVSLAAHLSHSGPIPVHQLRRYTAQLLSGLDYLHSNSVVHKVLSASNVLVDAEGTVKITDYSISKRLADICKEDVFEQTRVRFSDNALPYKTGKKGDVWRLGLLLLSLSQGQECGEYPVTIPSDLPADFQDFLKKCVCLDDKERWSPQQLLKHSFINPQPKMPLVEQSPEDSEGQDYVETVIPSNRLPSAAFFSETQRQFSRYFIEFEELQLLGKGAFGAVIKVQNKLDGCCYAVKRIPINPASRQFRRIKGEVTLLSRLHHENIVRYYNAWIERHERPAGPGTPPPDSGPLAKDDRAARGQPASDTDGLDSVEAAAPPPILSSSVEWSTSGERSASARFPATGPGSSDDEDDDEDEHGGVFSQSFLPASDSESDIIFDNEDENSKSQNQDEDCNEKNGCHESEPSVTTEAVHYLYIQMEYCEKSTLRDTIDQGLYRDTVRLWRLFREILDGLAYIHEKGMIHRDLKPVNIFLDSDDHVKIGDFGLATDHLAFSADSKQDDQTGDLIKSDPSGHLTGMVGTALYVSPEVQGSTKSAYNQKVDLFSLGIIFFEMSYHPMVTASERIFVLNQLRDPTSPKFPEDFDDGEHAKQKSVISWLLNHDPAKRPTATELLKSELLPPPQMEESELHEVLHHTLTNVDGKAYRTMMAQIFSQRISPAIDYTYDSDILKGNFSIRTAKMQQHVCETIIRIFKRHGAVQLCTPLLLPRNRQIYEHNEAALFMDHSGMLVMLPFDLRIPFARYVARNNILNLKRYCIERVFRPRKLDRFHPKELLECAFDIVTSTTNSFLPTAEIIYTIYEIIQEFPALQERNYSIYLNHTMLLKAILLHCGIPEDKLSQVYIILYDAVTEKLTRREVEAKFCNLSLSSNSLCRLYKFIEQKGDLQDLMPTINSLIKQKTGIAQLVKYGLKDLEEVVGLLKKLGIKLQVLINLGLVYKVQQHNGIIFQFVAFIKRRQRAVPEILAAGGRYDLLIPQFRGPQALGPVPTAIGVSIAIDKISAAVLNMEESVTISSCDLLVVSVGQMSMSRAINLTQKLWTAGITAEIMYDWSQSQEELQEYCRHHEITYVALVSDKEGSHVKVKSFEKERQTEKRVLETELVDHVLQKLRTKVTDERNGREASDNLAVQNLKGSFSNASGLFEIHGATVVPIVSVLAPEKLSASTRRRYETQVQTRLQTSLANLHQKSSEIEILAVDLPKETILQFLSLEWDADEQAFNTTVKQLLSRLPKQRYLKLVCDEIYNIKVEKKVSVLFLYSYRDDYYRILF
In short: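 U2OS cells adhered overnight, then treated with compounds (4-fold serial dilutions from 40 μM final) plus borrelidin 10 μM final for 1 h at 37 °C. Lysate eIF2α Ser51 phosphorylation measured by AlphaScreen SureFire. Percent inhibition calculated relative to borrelidin-only wells.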

[3] = compounds of Formula II, 4 nM GCN2 kinase
[4] = compounds of Formula II, biomarker assay, phosphorylated eIF2α Ser51 in borrelidin-treated U2OS cells
[5] = Enzyme activity for compounds of Formula IV, Ki(app), 25° C.
[6] = compounds of Formula IV, biomarker assay, phosphorylated eIF2α Ser51 in borrelidin-treated U2OS cells

Chain of GCN2 kinase (Q9P2K8 whole entry): as above

SMILES	Ki [1, 3]	IC50 [2, 4]	Ki [1, 5]	IC50 [2, 6]	other results
CS(=O)(=O)NCC1COCCN(c2cc(-c3cnc4ccc(C(F)F)nn34)ncn2)C1 (stereo not drawn) [II-481, N-((4-(6-(6-(Difluoromethyl)imidazo[1,2-b]pyridazin-3-yl)pyrimidin-4-yl)-1,4-oxazepan-6-yl)methyl)methanesulfonamide]	10 to 1000 nM	500 to 5000 nM	–	–	–
CC(=O)N1CCN(c2nccc(-c3cnc4cnc(C(N)=O)cn34)n2)CC1 [IV-182, 3-(2-(4-Acetylpiperazin-1-yl)pyrimidin-4-yl)imidazo[1,2-a]pyrazine-6-carboxamide]	–	–	10 to 100 nM	500 to 5000 nM	–
C[C@@H]1C[C@@H](c2c[nH]nc2F)CN(c2ccnc(-c3cnc4cnc(C(F)(F)F)cn34)n2)C1 [IV-765]	–	–	–	< 500 nM	IC50 ([1]; compounds of Formula IV, 4 nM GCN2 kinase): 10 to 1000 nM
NC(=O)CC1CCCN(c2cc(-c3cnc4ccc(C(F)F)nn34)ccn2)C1 (stereo not drawn) [II-145, 2-(1-(4-(6-(Difluoromethyl)imidazo[1,2-b]pyridazin-3-yl)pyridin-2-yl)piperidin-3-yl)acetamide]	10 to 1000 nM	500 to 5000 nM	–	–	–
O=C1NCC2CN(c3ccnc(-c4cnc5cnc(C(F)(F)F)cn45)n3)CCN12 (stereo not drawn) [IV-480, 7-(2-(6-(Trifluoromethyl)imidazo[1,2-a]pyrazin-3-yl)pyrimidin-4-yl)hexahydroimidazo[1,5-a]pyrazin-3(2H)-one]	–	–	100 to 1000 nM	> 5000 nM	–
CC1C(CNS(C)(=O)=O)CCN1c1cc(-c2cnc3ccc(C(F)F)nn23)ncn1 (stereo not drawn) [II-243, N-((1-(6-(6-(Difluoromethyl)imidazo[1,2-b]pyridazin-3-yl)pyrimidin-4-yl)-2-methylpyrrolidin-3-yl)methyl)methanesulfonamide]	10 to 1000 nM	500 to 5000 nM	–	–	–
O=C(NCCO)N1CCCC(c2cc(-c3cnc4ccc(C(F)F)nn34)ncn2)C1 (stereo not drawn) [II-178, 3-(6-(6-(difluoromethyl)imidazo[1,2-b]pyridazin-3-yl)pyrimidin-4-yl)-N-(2-hydroxyethyl)piperidine-1-carboxamide]	10 to 1000 nM	500 to 5000 nM	–	–	–
C[C@H]1CN(c2cc(-c3cnn4ccc(C(F)F)nc34)ncn2)C[C@@H](CNS(C)(=O)=O)C1(F)F [III-12, N-[[(3S,5S)-1-[6-[5-(Difluoromethyl)pyrazolo[1,5-a]pyrimidin-3-yl]pyrimidin-4-yl]-4,4-difluoro-5-methyl-3-piperidyl]methyl]methanesulfonamide]	–	–	–	–	Ki ([1]; compounds of Formula III, 4 nM GCN2 kinase): < 10 nM; IC50 ([2]; compounds of Formula III, U2OS cells, 10 μM borrelidin, 1 h, read-out: GCN2 Biomarker (IC50)): < 500 nM
FC(F)(F)c1cn2c(-c3nccc(N4CCCC(c5cnco5)C4)n3)cnc2cn1 (stereo not drawn) [IV-678, 5-(1-(2-(6-(Trifluoromethyl)imidazo[1,2-a]pyrazin-3-yl)pyrimidin-4-yl)piperidin-3-yl)oxazole]	–	–	10 to 100 nM	500 to 5000 nM	–
FC(F)c1ccc2ncc(-c3cc(N4CCOC(c5cn[nH]c5)C4)ncn3)n2n1 (stereo not drawn) [II-4, 4-(6-(6-(Difluoromethyl)imidazo[1,2-b]pyridazin-3-yl)pyrimidin-4-yl)-2-(1H-pyrazol-4-yl)morpholine]	10 to 1000 nM	500 to 5000 nM	–	–	–
CS(=O)(=O)NCC1(O)CCCN(c2cc(-c3cnc4ccc(C(F)F)nn34)ncn2)C1 (stereo not drawn) [II-158, N-((1-(6-(6-(Difluoromethyl)imidazo[1,2-b]pyridazin-3-yl)pyrimidin-4-yl)-3-hydroxypiperidin-3-yl)methyl)methanesulfonamide]	10 to 1000 nM	500 to 5000 nM	–	–	–
C[C@H]1[C@@H](c2cn[nH]c2)NCCN1c1ccnc(-c2cnc3cnc(C4CC4)cn23)n1 (racemic) [IV-411, Cis-6-Cyclopropyl-3-(4-(2-methyl-3-(1H-pyrazol-4-yl)piperazin-1-yl)pyrimidin-2-yl)imidazo[1,2-a]pyrazine]	–	–	10 to 100 nM	500 to 5000 nM	–
CS(=N)(=O)CC1CCCN(c2ccnc(-c3cnc4sc(C(F)(F)F)cn34)n2)C1 (racemic) [Compound V-18, Imino(methyl)((1-(2-(2-(trifluoromethyl)imidazo[2,1-b]thiazol-5-yl)pyrimidin-4-yl)piperidin-3-yl)methyl)-λ^6-sulfanone]	–	–	–	–	Ki ([1]; compounds of Formula V, 4 nM GCN2 kinase): 100 to 1000 nM; IC50 ([2]; compounds of Formula V, U2OS cells, 10 μM borrelidin, 1 h, read-out: GCN2 Biomarker (IC50)): > 5000 nM
CC1CC(C)(O)C(CNS(C)(=O)=O)CN1c1cc(-c2cnc3ccc(C(F)F)nn23)ncn1 (stereo not drawn) [II-365, N-((1-(6-(6-(Difluoromethyl)imidazo[1,2-b]pyridazin-3-yl)pyrimidin-4-yl)-4-hydroxy-4,6-dimethylpiperidin-3-yl)methyl)methanesulfonamide]	10 to 1000 nM	> 5000 nM	–	–	–
O=C1CN(c2ccnc(-c3cnc4cnc(C(F)(F)F)cn34)n2)CC(c2cn[nH]c2)N1 (stereo not drawn) [IV-410, 6-(1H-Pyrazol-4-yl)-4-(2-(6-(trifluoromethyl)imidazo[1,2-a]pyrazin-3-yl)pyrimidin-4-yl)piperazin-2-one]	–	–	10 to 100 nM	> 5000 nM	–
Fc1n[nH]cc1C1CCN(c2ccnc(-c3cnc4cnc(C(F)(F)F)cn34)n2)C1 (stereo not drawn) [IV-524, 3-(4-(3-(3-Fluoro-1H-pyrazol-4-yl)pyrrolidin-1-yl)pyrimidin-2-yl)-6-(trifluoromethyl)imidazo[1,2-a]pyrazine]	–	–	< 10 nM	< 500 nM	–
CC(NS(C)(=O)=O)[C@@H]1CN(c2cc(-c3cnc4ccc(C(F)F)nn34)ncn2)CCO1 (single isomer, unassigned) [II-510]	10 to 1000 nM	500 to 5000 nM	–	–	–
Cc1cc(N2CC(C)NC(c3cn[nH]c3)C2C)nc(-c2cnc3cnc(C(F)(F)F)cn23)n1 (stereo not drawn) [IV-627, 3-(4-(2,5-Dimethyl-3-(1H-pyrazol-4-yl)piperazin-1-yl)-6-methylpyrimidin-2-yl)-6-(trifluoromethyl)imidazo[1,2-a]pyrazine]	–	–	< 10 nM	500 to 5000 nM	–
CS(=O)(=O)N1C2CCC1CN(c1ccnc(-c3cnc4cnc(C(F)F)cn34)n1)C2 [IV-126, 6-(Difluoromethyl)-3-(4-(8-(methylsulfonyl)-3,8-diazabicyclo[3.2.1]octan-3-yl)pyrimidin-2-yl)imidazo[1,2-a]pyrazine]	–	–	100 to 1000 nM	> 5000 nM	–
Cc1cnc(-c2cnc3ccc(C(F)F)nn23)cc1N1CCCC(CNS(C)(=O)=O)C1 (stereo not drawn) [II-53, N-((1-(2-(6-(Difluoromethyl)imidazo[1,2-b]pyridazin-3-yl)-5-methylpyridin-4-yl)piperidin-3-yl)methyl)methanesulfonamide]	< 10 nM	500 to 5000 nM	–	–	–
COC1CC(c2cn[nH]c2)CN(c2ccnc(-c3cnc4cnc(C(F)(F)F)cn34)n2)C1 (stereo not drawn) [IV-396, 3-(4-(3-Methoxy-5-(1H-pyrazol-4-yl)piperidin-1-yl)pyrimidin-2-yl)-6-(trifluoromethyl)imidazo[1,2-a]pyrazine]	–	–	< 10 nM	500 to 5000 nM	–
Fc1n[nH]cc1C1CCN(c2ccnc(-c3cnc4cnc(C(F)(F)F)cn34)n2)C1 (single isomer, unassigned) [IV-563, 3-(4-(3-(3-Fluoro-1H-pyrazol-4-yl)pyrrolidin-1-yl)pyrimidin-2-yl)-6-(trifluoromethyl)imidazo[1,2-a]pyrazine]	–	–	< 10 nM	500 to 5000 nM	–
Brc1cn2c(-c3nccc(N4CCCC(c5c[nH]cn5)C4)n3)cnc2cn1 (single isomer, unassigned) [IV-362, 3-(4-(3-(1H-Imidazol-4-yl)piperidin-1-yl)pyrimidin-2-yl)-6-bromoimidazo[1,2-a]pyrazine]	–	–	10 to 100 nM	500 to 5000 nM	–
CN(C)S(=O)(=O)NCC1CN(c2cc(-c3cnc4ccc(C(F)F)nn34)ncn2)CCO1 (stereo not drawn) [II-349, 3-((4-(6-(6-(Difluoromethyl)imidazo[1,2-b]pyridazin-3-yl)pyrimidin-4-yl)morpholin-2-yl)methyl)-1,1-dimethyl sulfuric diamide]	10 to 1000 nM	500 to 5000 nM	–	–	–
CC(=O)N1CCN(c2ccnc(-c3cnc4cnc(Br)cn34)n2)CC1 [IV-32, 1-(4-(2-(6-Bromoimidazo[1,2-a]pyrazin-3-yl)pyrimidin-4-yl)piperazin-1-yl)ethan-1-one]	–	–	100 to 1000 nM	500 to 5000 nM	–
CC1CC(c2cn[nH]c2)C(C)N(c2ccnc(-c3cnc4cnc(C(F)(F)F)cn34)n2)C1 (single isomer, unassigned) [IV-311]	–	–	< 10 nM	< 500 nM	–
NC(=O)Cc1cccc(-c2ccnc(-c3cnc4cnc(C(F)F)cn34)n2)c1 [IV-155, 2-(3-(2-(6-(Difluoromethyl)imidazo[1,2-a]pyrazin-3-yl)pyrimidin-4-yl)phenyl)acetamide]	–	–	100 to 1000 nM	> 5000 nM	–
N#Cc1cn2c(-c3cccc(-c4cccc5[nH]ccc45)n3)cnc2cn1 [IV-234, 3-(6-(1H-Indol-4-yl)pyridin-2-yl)imidazo[1,2-a]pyrazine-6-carbonitrile]	–	–	10 to 100 nM	> 5000 nM	–
FC(F)c1cn2c(-c3nccc(N4CCCCC4)n3)cnc2cn1 [IV-103, 6-(Difluoromethyl)-3-(4-(piperidin-1-yl)pyrimidin-2-yl)imidazo[1,2-a]pyrazine]	–	–	100 to 1000 nM	> 5000 nM	–
FC(F)OC1CC(c2cn[nH]c2)CN(c2ccnc(-c3cnc4cnc(C(F)(F)F)cn34)n2)C1 (stereo not drawn) [IV-466, 3-(4-(3-(Difluoromethoxy)-5-(1H-pyrazol-4-yl)piperidin-1-yl)pyrimidin-2-yl)-6-(trifluoromethyl)imidazo[1,2-a]pyrazine]	–	–	< 10 nM	500 to 5000 nM	–
